Laboratory results from patent US7923230B2, “Neurodegenerative protein aggregation inhibition methods and compounds” (The Board of Trustees of the Leland Stanford Junior …, priority 2003, dated 2011).

Key:
FKBP12 = target: T1, FKBP12 (Homo sapiens, UniProt P62942); assay: Surface plasmon resonance, binding to immobilized FKBP12; settings: SPR
T1 construct: made in house
Experimental: (§1) Surface Plasmon Resonance. Amide coupling was used to generate a carboxymethyldextran (CMS; BIAcore, Uppsala, Sweden) sensor chip bearing a mockimmobilized surface on flow chamber 1 (Fc1), 950 RU of Aβ(1-40) (SEQ ID NO: 3) (AnaSpec, San Jose, Calif.) on Fc2, and 2800 RU of bacterially-expressed recombinant FKBP12 on Fc3. The regeneration conditions were as follows: for removing analyte from Aβ surfaces (4 M guanidine HCl, 10 mM Tris buffer pH 8.0) and for removing analyte from the FKBP surface (750 mM NaCl, 250 mM NaOH). To calculate KD1 and KD2 (±SEM) for Aβ binding (in part C), the control signal was subtracted and data was fit according to the method of Cairo et al. (Biochemistry 41, 8620-8629 (2002). In each case, eight concentrations of analyte distributed around the KD were injected in duplicate in the running buffer (HBS-EP; BIAcore). Congo red is not uniquely specific for Aβ and, consistent with this, it also binds FKBP, but at a KD 20-fold higher than SLF-CR.

Aβ(1-42) [1] = target: T2, Aβ(1-42) (Homo sapiens, UniProt P05067); assay: Light scattering (turbidity) of Aβ(1-42) fibrillogenesis; assay type: biochemical
T2 construct: purchased AnaSpec, San Jose, Calif; host or cells: synthetic peptide
Experimental: Light Scattering. Fresh A13(1-42) (Anaspec, San Jose, Calif.) (SEQ ID NO: 2) was prepared by resuspending the peptide in […] pH 9.5 to 10, sonicating for 5 minutes, and passing the resulting solutions through a 10 kDa filter (YM-10; Millipore, Bedford, Mass.) (31). Stock solutions (100 μM in 2 mM NaOH) were stored at −80° C. and diluted to 25 uM with PBS pH 7.2 to initiate fibrillogenesis. Identical methods were used to prepare the Aβ(1-42) (SEQ ID NO: 2) solutions utilized for TEM, AFM, MTT, Tunel and thioflavin T experiments. Turbidity was measured at 30° C. with orbital shaking in half area, nonbinding surface 96-well plates (Corning) on a TECAN GENios plate reader. The total volume was 50 uL and the concentration of FKBP was 1 uM. The results are representative of two independent experiments each performed in triplicate.

Aβ(1-42) [2] = target: T2, Aβ(1-42); assay: Thioflavin T fluorescence assay of Aβ aggregation; assay type: biochemical; settings: highest drug concentrations
Experimental: Fibrillization Procedure. Purified amyloid beta (1-42) (SEQ ID NO: 2) was purchased from AnaSpec and used without further purification. Fibrillization conditions are based on those previously described by Gordon and Meredith (Gordon, D. J. and Meredith, S. C. (2003) Biochemistry 42:475-485). Briefly, peptide was dissolved in PBS to a final concentration of 100 uM. To this solution, was added either FKBP12 (to a final concentration of 1 uM) or an equivalent volume of buffer alone (100 mM NaCl, 10 mM Tris-HCl pH 7.0). Additionally, either agent (dissolved in DMF) or DMF alone was added. These mixtures were placed at room temperature for at least 4 days without disruption. Thioflavin T assay. […] The mixture was vortexed briefly and the fluorescence emission maximum measured. For the dose dependence experiment, the emission wavelength was recorded at 490 nm. […] Turbidity was measured at 30° C. with orbital shaking in half area, nonbinding surface 96-well plates (Corning) on a TECAN GENios plate reader. […] Fluorescence was measured on a SpectraMax Gemini (Molecular Devices, Sunnyvale, Calif.), using an excitation wavelength of 446 nm (±5 nm) and an emission of 490 nm (±5 nm). The data was fit to sigmoidal curves using DeltaGraph (DeltaPoint, Inc) and the IC50 for each treatment recorded. […] A linear relationship between thioflavin T fluorescence and percent aggregation was used for simplicity.

Aβ(1-42) [3] = target: T2, Aβ(1-42); assay: Transmission electron microscopy of Aβ fibrils; assay type: biochemical; settings: for size or abundance of Aβ fibrils (TEM): 1 uM drug, 1 μM FKBP where present
Experimental: Transmission Electron Microscopy (TEM). Electron microscopy was performed essentially as previously described (Gordon, D. J. and Meredith, S. C. (2003) Biochemistry 42:475-485). Briefly, solutions subjected to the fibrillization conditions described above were applied to Formvar coated 400-mesh glow-discharged copper grids and contrasted with 1% uranyl acetate solution. Grids were analyzed at 80 kV and a magnification of 100,000×. Transmission Electron Microscopy. TEM was conducted using 300 mesh formvar-coated copper grids and 1% uranyl acetate stain on a JEOL TEM1230 and imaged with a Gatan 967 slow-scan CCD at 80 kV. Samples were incubated for 4 days at 22° C. in PBS pH 7.2 containing 25 uM Aβ(1-42) (SEQ ID NO: 2), 1 μM FKBP and 1 uM drug, where appropriate. The protocol used to prepare Aβ can influence fibrillogenesis and the reproducibility of the assays. Therefore, it can be useful to examine Aβ aggregation under a variety of conditions. In addition to the hydroxide method used above, stock solutions of Aβ were also prepared using a trifluoroacetic acid (TFA) protocol (Crystal, et al., J. Neurochem. 86, 1359-1368 (2003). TEM on samples originated from these stock solutions yielded similar results, although the typical size of the fibrils was considerably shorter.

Rat hippocampal neurons [4] = assay: MTT cell viability assay, neurons exposed to pre-treated Aβ(1-42); assay type: cell-based; settings: high molar concentrations of Aβ; SLF-Benz-CR at 100 nM
Experimental: Cell Viability Assay. Rat hippocampal (E19.5 and P0) neurons were prepared as previously described (Graef, et al., Nature 401, 703-708 (1999). Fresh Aβ(1-42) (100 uM) (SEQ ID NO: 2) was prepared under basic conditions and incubated with inhibitors for two days at 22° C. in PBS pH 7.2 and then diluted 1:4 with culture media and applied to neurons. MTT assays were conducted as per manufacturer's specifications after two additional days of incubation at 37° C. and 5% CO2. The inhibitor concentrations are the in vitro incubation values.

Rat hippocampal neurons [5] = assay: Tunel staining / immunofluorescence microscopy of neurons exposed to Aβ; assay type: cell-based; settings: for Tunel positive cells / Aβ toxicity: Aβ 25 uM, drug and FKBP 1 uM, incubated with Aβ prior to addition
Experimental: Immunofluorescence Microscopy. Rat hippocampal neurons (P0) were cultured 10 days on Matrigel-coated glass coverslips (Deckgläser, Germany) in 24-well plates (Corning) at 37° C. and 5% CO2. Aβ solutions were prepared and applied as above. The final concentration of Aβ was 25 uM and drug and FKBP were present at 1 uM. Following a two-day incubation, cells were prepared for microscopy as described (R. Kayed, et al., Science 300, 486-489 (2003).

Aβ(1-40) = target: T3, Aβ(1-40) (Homo sapiens, UniProt P05067); assay: Surface plasmon resonance, binding to immobilized Aβ(1-40)
T3 construct: purchased AnaSpec, San Jose, Calif; host or cells: synthetic peptide
Experimental: as §1

Aβ(1-42) [6] = assay: Atomic force microscopy of Aβ aggregates; assay type: biochemical; settings: samples containing Aβ(1-42) and FKBP
Experimental: Atomic Force Microscopy. Samples for AFM were prepared as for TEM, above, applied to a clean silicon surface, washed twice with dH2O, dried, and imaged at a scan rate of 1 Hz using a silicon probe (TESP) on an AFM Nanoscope Dimension 3000 (Digital Instruments) in Tapping Mode (C. Goldsbury, et al, J. Mol. Biol. 285, 33-39 (1999). The dimensions of the globular aggregates in the samples treated with SLF-CR/FKBP were approximated using NIH Image.

T2 sequence (P05067 672-713): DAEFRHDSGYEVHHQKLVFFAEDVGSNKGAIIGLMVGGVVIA
T1 sequence (P62942 whole entry): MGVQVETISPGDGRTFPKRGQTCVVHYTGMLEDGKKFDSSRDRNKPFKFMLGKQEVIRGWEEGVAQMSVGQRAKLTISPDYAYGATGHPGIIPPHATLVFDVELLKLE
T3 sequence (P05067 672-711): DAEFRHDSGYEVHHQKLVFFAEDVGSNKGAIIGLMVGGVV

Row | Molecule | effect on Aβ aggregation / turbidity (Aβ(1-42) [1]) | size or abundance of Aβ fibrils (TEM) (Aβ(1-42) [3]) | Tunel positive cells / Aβ toxicity (Rat hippocampal neurons [5]) | binding to immobilized FKBP (FKBP12) | other results
1 | Nc1c(/N=N/c2ccc(-c3ccc(/N=N/c4cc(S(=O)(=O)O)c5ccccc5c4N)cc3)cc2)cc(S(=O)(=O)O)c2ccccc12 [CR, Congo red, reference compound] | modest inhibitor of turbidity | ineffective | failed to substantially reduce the number of Tunel positive cells |  | KD for FKBP, fold higher than SLF-CR (FKBP12): 20 fold; thioflavin T fluorescence (Aβ(1-42) [2]): failed to fully block thioflavin T fluorescence; rescue of neurons (Rat hippocampal neurons [4]): unable to rescue
2 | CCC(C)(C)C(=O)C(=O)N1CCCCC1C(=O)OC(CCc1ccc(OC)c(OC)c1)c1cccc(OCC(=O)Nc2c(N=Nc3ccc(-c4ccc(N=Nc5cc(S(=O)(=O)O)c6ccccc6c5N)cc4)cc3)cc(S(=O)(=O)O)c3ccccc23)c1 (stereo not drawn) [SLF-CR] |  | ineffective | failed to substantially reduce the number of Tunel positive cells | comparable affinity | affinity for Aβ (Aβ(1-40); immobilized Aβ(1-40), SPR): not significantly different from that of CR; SPR response on immobilized amyloid (Aβ(1-40); ternary complex test, compound alone or pre-incubated with FKBP): ~140 RUs; recruitment of FKBP to Aβ by electron microscopy (Aβ(1-42) [3]): confirmed; fibril formation (AFM) (Aβ(1-42) [6]): failed to form fibrils
3 | CCC(C)(C)C(=O)C(=O)N1CCCC[C@H]1C(=O)O[C@H](CCc1ccc(OC)c(OC)c1)c1cccc(OCC(=O)O)c1 [SLF] |  |  |  | comparable affinity | 
4 | CC[C@@]1(O)C(=O)OCc2c1cc1n(c2=O)Cc2cc3ccccc3nc2-1 [camptothecin, reference compound] |  |  |  |  | remaining cells positive for Tunel (Rat hippocampal neurons [5]; after two days): 36%
5 | FKBP: bacterially-expressed recombinant FKBP12, FK506-binding protein, prolyl isomerase | did not interfere with Aβ aggregation | does not influence the formation or architecture of Aβ fibrils | failed to substantially reduce the number of Tunel positive cells |  | 
